This note sets out measurements from US10919896B2, “Preparation and uses of pyrimidinone derivatives” (Cancer Research Technology Limited, priority 2016, dated 2021).

Structures can show the parent of a compound that is named as a salt.

This assay concerns Cdc7 (pS40MCM2 levels in HCT116 cells). In words: Cdc7 Cell Pharmacodynamics Assay Method 2B: pS40MCM2 levels in HCT116 cells, 18 hours. The format is cell-based. The note with it: Homo sapiens, HCT-116, read-out: Biomarker Method 2B (pEC50) (converted). The essentials:
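HCT116 cells seeded at 20,000/well, settled overnight, then treated with compound (1:400 dilution from compound plate) for 6 h (Method 2A) or 18 h (Method 2B) at 37° C. Lysates captured on total-MCM2 antibody plates; pS40 MCM2 detected with rabbit anti-pMCM2 Ser40, HRP secondary and chemiluminescent substrate.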

Take `O=c1[nH]c(-c2ccnc(F)c2)nc(N2CCCC(F)(F)C2)c1Cl` [Compound 90, 5-chloro-4-(3,3-difluoro-1-piperidyl)-2-(2-fluoro-4-pyridyl)-1H-pyrimidin-6-one]: the EC50 is 13.5 nM.

Take `O=c1[nH]c(-c2ccnc(F)c2)nc(N2CCNCC(F)(F)C2)c1Cl` [Compound 312, 5-chloro-4-(6,6-difluoro-1,4-diazepan-1-yl)-2-(2-fluoro-4-pyridyl)-1H-pyrimidin-6-one hydrochloride]: the EC50 is 7.59 nM.

On to `C[C@@H]1CNCCN1c1nc(-c2ccnc(F)c2)[nH]c(=O)c1Cl` [Compound 323], for which the EC50 was 5.62 nM.
